According to ChEMBL document CHEMBL4627407, “Identification of a Potent Oridonin Analogue for Treatment of Triple-Negative Breast Cancer” (J Med Chem, 2020):
Active and inactive are the calls of the source. The calls are words filed in the database; no cut-off is given here.

How the values were obtained:
HCC1806 [1] = assay: Induction of cell cycle arrest in human HCC1806 cells assessed as accumulation at S phase at 200 nM after 48 hrs by propidium iodide staining based FACScan flow cytometry (reference value: 18.89%); format: functional
HCC1806 [2] = assay: Induction of apoptosis in human HCC1806 cells assessed as early apoptotic cells at 200 uM after 48 hrs by Annexin V-FITC/propidium iodide double staining based flow cytometry (reference value: 2.16%); format: functional
HCC1937 = assay: Antiproliferative activity against human HCC1937 cells after 72 hrs by MTT assay; format: functional, cell-based; settings: HCC1937, 72 h
NCI/ADR-RES = assay: Antiproliferative activity against human MCF7/ADR cells after 72 hrs by MTT assay; format: functional, cell-based
HCC1806 [3] = assay: Inhibition of cell invasion in human HCC1806 cells at 100 to 200 nM incubated for 48 hrs by crystal violet staining based matrigel coated transwell assay; format: functional
HCC1806 [4] = assay: Induction of cell cycle arrest in human HCC1806 cells assessed as accumulation at S phase at 50 nM after 48 hrs by propidium iodide staining based FACScan flow cytometry (reference value: 18.89%); format: functional
HCC1806 [5] = assay: Induction of apoptosis in human HCC1806 cells assessed as necrotic cells at 200 uM after 48 hrs by Annexin V-FITC/propidium iodide double staining based flow cytometry (reference value: 1.32%); format: functional
HCC1806 [6] = assay: Antitumor activity against human HCC1806 cells in ICR mouse assessed as increase in apoptosis in tumor at 12.5 to 25 mg/kg, iv administered once per day for 23 consecutive days by Ki67 staining-based immunohistochemical analysis; format: functional, organism-based
[7] = molecular target: T1, M-phase inducer phosphatase 3 (Homo sapiens) (UniProt P30307); assay: Inhibition of cdc25c in human HCC1806 cells assessed as increase in cdc25c phosphorylation at ser216 residue by western blot analysis; format: cell-based
T1 sequence (whole entry): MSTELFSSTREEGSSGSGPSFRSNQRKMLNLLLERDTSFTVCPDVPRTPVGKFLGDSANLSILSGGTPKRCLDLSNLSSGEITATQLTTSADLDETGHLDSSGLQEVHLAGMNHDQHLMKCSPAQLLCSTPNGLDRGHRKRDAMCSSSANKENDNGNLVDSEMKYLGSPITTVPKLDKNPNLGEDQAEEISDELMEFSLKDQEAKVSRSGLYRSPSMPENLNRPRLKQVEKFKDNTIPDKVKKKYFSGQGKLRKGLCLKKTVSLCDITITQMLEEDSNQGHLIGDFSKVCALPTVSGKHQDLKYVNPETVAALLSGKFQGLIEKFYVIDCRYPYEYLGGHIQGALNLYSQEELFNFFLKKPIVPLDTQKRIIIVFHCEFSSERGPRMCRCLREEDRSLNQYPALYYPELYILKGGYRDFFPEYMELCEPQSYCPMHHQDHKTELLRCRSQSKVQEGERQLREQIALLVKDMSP

HCC1806 [8] = assay: Induction of intracellular reactive oxygen species generation in human HCC1806 cells assessed as accumulation of DCFH2-DA positive cells at 200 nM incubated for 48 hrs by flow cytometeric analysis (reference value: 3.53%); format: functional
HCC1806 [9] = assay: Antitumor activity against human HCC1806 cells in ICR mouse assessed as tumor shrinkage at 12.5 to 25 mg/kg, iv administered once per day for 23 consecutive days by Ki67 staining-based immunohistochemical analysis; format: functional, organism-based
HCC1806 [10] = assay: Induction of cell cycle arrest in human HCC1806 cells assessed as accumulation at G2/M phase at 100 nM after 48 hrs by propidium iodide staining based FACScan flow cytometry (reference value: 10.38%); format: functional
HCC1806 [11] = assay: Induction of apoptosis in human HCC1806 cells assessed as necrotic cells at 100 uM after 48 hrs by Annexin V-FITC/propidium iodide double staining based flow cytometry (reference value: 1.32%); format: functional
[12] = Toxicity in ICR mouse assessed as induction of morphological changes in heart at 25 mg/kg, iv administered once per day for 23 consecutive days; format: organism-based; settings: in vivo
HCC1806 [13] = assay: Induction of intracellular reactive oxygen species generation in human HCC1806 cells at 200 nM incubated for 48 hrs in presence of ROS scavenger N-acetyl cysteine by DCFH2-DA staining based flow cytometeric analysis; format: functional, cell-based
[14] = Toxicity in ICR mouse assessed as induction of morphological changes in liver at 25 mg/kg, iv administered once per day for 23 consecutive days; format: organism-based; settings: in vivo
HCC1806 [15] = assay: Induction of cell cycle arrest in human HCC1806 cells assessed as accumulation at G1 phase at 50 nM after 48 hrs by propidium iodide staining based FACScan flow cytometry (reference value: 70.74%); format: functional
HCC1806 [16] = assay: Induction of apoptosis in human HCC1806 cells assessed as increase in Bax expression at 50 to 200 nM after 48 hrs by Western blot analysis; format: functional, cell-based
HCC1806 [17] = assay: Induction of cell cycle arrest in human HCC1806 cells assessed as accumulation at G2/M phase at 200 nM after 48 hrs by propidium iodide staining based FACScan flow cytometry (reference value: 10.38%); format: functional
HCC1806 [18] = assay: Induction of cell cycle arrest in human HCC1806 cells assessed as accumulation at S phase at 100 nM after 48 hrs by propidium iodide staining based FACScan flow cytometry (reference value: 18.89%); format: functional
HCC1806 [19] = assay: Antitumor activity against human HCC1806 cells in ICR mouse assessed as tumor shrinkage at 12.5 to 25 mg/kg, iv administered once per day for 23 consecutive days by TUNEL based immunohistochemical analysis; format: functional, organism-based
HCC1806 [20] = assay: Antimigratory activity against human HCC1806 cells assessed as reduction in MMP9 expression at 50 to 200 nM after 48 hrs by Western blot analysis; format: functional, cell-based
HCC1806 [21] = assay: Induction of cell death in human HCC1806 cells at 200 nM incubated for 72 hrs in presence of necroptosis inhibitor necrostatin-1 by MTT assay; format: functional, cell-based
HCC1806 [22] = assay: Induction of apoptosis in human HCC1806 cells assessed as viable cells at 100 uM after 48 hrs by Annexin V-FITC/propidium iodide double staining based flow cytometry (reference value: 95.7%); format: functional; settings: HCC1806, 48 h, read-out: Activity
T47D = assay: Antiproliferative activity against human T47D cells after 72 hrs by MTT assay; format: functional, cell-based
HCC1806 [23] = assay: Induction of cell death in human HCC1806 cells at 200 nM incubated for 72 hrs in presence of caspase inhibitor z-VAD by MTT assay; format: functional, cell-based
HCC1806 [24] = assay: Antiproliferative activity against human HCC1806 cells after 72 hrs by MTT assay; format: functional, cell-based; settings: HCC1806, 72 h
HCC1806 [25] = assay: Induction of apoptosis in human HCC1806 cells assessed as increase in Bad expression at 50 to 200 nM after 48 hrs by Western blot analysis; format: functional, cell-based
HCC1806 [26] = assay: Induction of cell cycle arrest in human HCC1806 cells assessed as accumulation at G1 phase at 100 nM after 48 hrs by propidium iodide staining based FACScan flow cytometry (reference value: 70.74%); format: functional
HCC1806 [27] = assay: Induction of apoptosis in human HCC1806 cells assessed as early apoptotic cells at 100 uM after 48 hrs by Annexin V-FITC/propidium iodide double staining based flow cytometry (reference value: 2.16%); format: functional

In the case of C=C1C(=O)[C@@]23C(=O)[C@@H]4OC[C@]5(C=CCC(C)(C)[C@@H]45)[C@@H]2CC[C@@H]1[C@H]3OC(=O)/C=C/c1ccncc1, the Activity (HCC1806 [1]) is reported as 20.74%, the Activity (HCC1806 [2]) is reported as 22.49% and the IC50 (HCC1937) is reported as 280 nM. For the same molecule, the IC50 (NCI/ADR-RES) was 1380 nM, the inhibition (HCC1806 [3]) was “Active” and the Activity (HCC1806 [4]) was 18.24%. For the same molecule, the Activity (HCC1806 [5]) was 4.32%, the Activity (HCC1806 [6]) was “Active” and the inhibition [7] was “Dose-dependent effect”. The Activity (HCC1806 [8]) was 45.87%, the Activity (HCC1806 [9]) was “Active” and the Activity (HCC1806 [10]) was 20.26%. For the same molecule, the Activity (HCC1806 [11]) was 0.66%, the Activity [12] was “Non-Toxic” and the Activity (HCC1806 [13]) was “inactive”. The Activity [14] was “Non-Toxic”, the Activity (HCC1806 [15]) was 65.83% and the Activity (HCC1806 [16]) was “Active”. The Activity (HCC1806 [17]) was 24.28%, the Activity (HCC1806 [18]) was 19.13% and the Activity (HCC1806 [19]) was “Active”. The Activity (HCC1806 [20]) was “Active”, the Activity (HCC1806 [21]) was “Active” and the viability at 100 µM (HCC1806 [22]) was 69%. The IC50 (T47D) was 560 nM, the Activity (HCC1806 [23]) was “inactive” and the IC50 (HCC1806 [24]) was 180 nM. For the same molecule, the Activity (HCC1806 [25]) was “Active”, the Activity (HCC1806 [26]) was 60.61% and the Activity (HCC1806 [27]) was 26.78%.
